IC50 data for 13 molecules are collected here from patent US7820665B2, “Imidazopyridazine inhibitors of PI3 kinase for cancer treatment” (Amgen Inc., priority 2007, dated 2010).

The target of one assay is T1, PI3Kα (Homo sapiens, UniProt P42336).
T1 construct: Full length p110 subunits of PI3K α, β and δ, N-terminally labeled with polyHis tag; polyHis (N); made in house; host or cells: Sf9 insect cells (baculovirus)
Description: In vitro PI3 kinase enzyme assay (PI3K ATPLoss). It is filed as biochemical. Particulars: recombinant p110α/p85, residual ATP by bioluminescence. The protocol:
Full length p110 subunits of PI3K α, β and δ, N-terminally labeled with polyHis tag, can be co-expressed with p85 with Baculo virus expression vectors in sf9 insect cells. P110/p85 heterodimers can be purified by sequential Ni-NTA, Q-HP, Superdex-100 chromatography. Purified α, β and δ isozymes can be stored at −20° C. in 20 mM Tris, pH 8, 0.2M NaCl, 50% glycerol, 5 mM DTT, 2 mM Na cholate. Truncated PI3Kγ, residues 114-1102, N-terminally labeled with polyHis tag, can be expressed with Baculo virus in Hi5 insect cells. The γ isozyme can be purified by sequential Ni-NTA, Superdex-200, Q-HP chromatography. The γ isozyme can be stored frozen at −80° C. in NaH2PO4, pH 8, 0.2M NaCl, 1% ethylene glycol, 2 mM β-mercaptoethanol.
PI3K enzyme assays (alpha, beta, delta and gamma) can be performed in 25 μL with the above final concentrations of components in white polyproplyene plates. Phosphatidyl inositol phosphoacceptor, PtdIns(4,5)P2 (e.g. P4508) can be obtained from Echelon Biosciences, Salt Lake City, Utah. The ATPase activity of the alpha and gamma isozymes may not be greatly stimulated by PtdIns(4,5)P2 under these conditions, it can be omitted from the assay of these isozymes. Test compounds can be dissolved in DMSO and diluted with three-fold serial dilutions. The compound in DMSO (1 μL) may be added per test well, and the inhibition relative to reactions containing no compound, with and without enzyme can be determined. After assay incubation at RT, the reaction can be stopped and residual ATP can be determined by addition of an equal volume of a commercial ATP bioluminescence kit (Perkin Elmer EasyLite, Perkin Elmer, Waltham, Mass.) according to the manufacturer's instructions, and detected using an Analyst GT luminometer.

Assay [1] has as its system Akt phosphorylation at Ser473 in HCT116 cells. As to the kind of experiment: Cell-based phospho-AKT Ser473 assay (HCT116 Cell), MSD sandwich immunoassay.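 Note: IGF-1 added at 100 ng/mL for 15 min after compound treatment, electrochemiluminescent readout of phospho-Akt, DMSO-only wells define maximum signal, IC50 reflects inhibition of phosphorylation.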 Particulars: Homo sapiens, HCT-116, 2 h, read-out: HCT116 Cell IC50, HCT116 cells, 2 h compound, IGF-1 stimulation, pAkt Ser473.
Description: This assay determines the ability of a compound to inhibit the phosphorylation of Serine 472 in Akt using a MSD based sandwich immunoassay (Meso Scale Detection, Meso Scale Discovery (MSD), Gaithersburg, Md.). HCT116 human colon carcinoma cell lines can be grown in McCoy's 5A growth medium (GIBCO, Carlsbad, Calif.) containing 10% FBS (GIBCO, Carlsbad, Calif.) and X1 Penicillin-streptomycin-glutamine (GIBCO, Carlsbad, Calif.). Prior to the assay, cells can be detached from the culture flask with trypsin, and re-suspended in complete media to give a final concentration of 1.6×10^5 cells per mL. Aliquots (100 μl) of the HCT116 cell suspension can be seeded into each well of a 96 well tissue culture plate to give a final density of 16,000 cells per well. Cells can then be incubated overnight at 37° C.
The following day the cells can be treated with serially diluted test compounds and incubated for 2 hours at 37° C. The culture media on the HCT 116 cells can be replaced with 189 μL McCoys media, supplemented with 0.1% BSA (ICN Biomedicals, Inc., Costa Mesa, Calif.). […] Aliquots (1 μL) of serially-diluted compounds can be transferred to 96 well tissue culture plates containing the HCT 116 cells. […] As a maximum response control, wells can contain 0.5% DMSO in place of compound. The plates can be mixed at 700 rpm for 2 min to ensure even distribution of the test compound and incubated for 2 hours at 37° C. Cells can then be stimulated with insulin-like growth factor 1 (Sigma, St Louis, Mo.) at final concentration of 100 ng/mL for 15 minutes at 37° C. The media can then be removed and the cells treated with 80 μL cell-lysis buffer (MSD) containing a cocktail of protease and phosphatase inhibitors for one hour at 4° C.
25 μL Cell lysate can then be transferred to pre-blocked MSD assay plates pre-coated with a capture antibody specific for Akt, and the plates can be incubated for 2 hours at room temperature. The cell lysates can then be removed and plates can then be washed four times with 200 μl per well of Tris wash buffer (500 mM Tris, PH 7.5, 1.5 M NaCl, 0.2% Tween-20). Subsequently cells can be incubated for 1 hour at room temperature with a 25 μL solution containing the detection antibody, anti-phospho Akt (Ser 473) labeled with an electrochemiluminescent compound (Meso Scale Discovery SULPHO-TAG™ label, MSD, Gaithersburg, Md.). The detection antibody can be removed and plates can then be washed four times with 200 μL per well of Tris wash buffer. An aliquot of 150 μL of diluted MSD read buffer can then be applied to each well, and the electrochemiluminescent signal can be measured using a MSD SECTOR™ plate reader (Meso Scale Discovery, Gaithersburg, Md.). This instrument measures the intensity of emitted light to determine a quantitative measure of phosphorylated Akt in each well. The dose-response data obtained with each compound can be analyzed and the IC50 inhibition of Akt phosphorylation at Ser473 can be calculated.
For assay [2], the system named is phosphorylation of Akt at Serine 473 in U87 MG cells. As to the kind of experiment: pAkt AlphaScreen (U87 Cell). It is filed as cell-based. The note with it: Homo sapiens, U-87 MG, 2 h, 2 h compound, pAkt Ser473 AlphaScreen. The procedure: The pAkt AlphaScreen® assay (PerkinElmer, Waltham, Mass.) determines whether there is phosphorylation of Akt at Serine 473 by recruitment of a phosphospecific antibody. This assay was performed using U87 MG cells. The U87 growth media consists of MEM (Gibco, Carlsbad, Calif.) supplemented with 10% FBS (Gibco), 1× Non-Essential Amino Acids (Gibco) and 1× Penicillin/Streptomycin/Glutamine (Gibco). The cells were maintained weekly using 0.05% Trypsin (Gibco) and replated in 150 mm TC-Treated Culture Dishes (Corning, Corning, N.Y.).
The first day of the assay, the adherent cells were trypsinized, media was added to the loose cells and cells were mixed to a homogenous mixture. 0.5 ml of the homogenous mixture was counted on the Beckman Coulter® Vi-CELL™ XR (Fullerton, Calif.). 50 frames of cells were counted and the number of viable cells was determined. The cells were then diluted to 0.25 million cells per ml, and centrifuged at 200 rcf for 5 minutes. The media was removed and the cells were reconstituted in fresh media for plating. The cells were plated at 20 μl per well on the PerkinElmer® Flexprop PLUS in Low Volume 384 Well White Tissue Culture Plates (Corning) with a final cell density of 5K cells per well. The plates were incubated overnight at 37° Celsius, 5% CO2.
On the second day, the compound plates were prepared, the cells were treated with compound and the pAkt reaction mix was added to the cell lysate. 384 well compound plates were prepared containing 1 μl of compound per well starting at 5 mM and diluted 1:2 across the row, resulting in a 22 well serial dilution. 39 μl of growth media was added to the compound plate in rows 1-22 using the PerkinElmer® FlexDrop PLUS resulting in a DMSO concentration of 2.5%. The cell plates and diluted compound plates were put onto the VELOCITY11™ VPREP™ 384 ST where the compound plate was mixed and 5 μl of serially diluted compound or controls was added to the cell plate. The final concentration of the compounds was 25 μM serially diluted to 11.9 pM in 0.5% DMSO. The cell plates were then incubated with compound for two hours at 37° Celsius, 5% CO2. After two hours, the media in the cell plates was aspirated using the BioTek® ELx405HT plate washer (Winooski, Vt.) removing the majority of media and compound without disturbing the adherent U87 cells. The following assay reagents are components of the SureFire® Akt (Ser 473) Phosphorylation 50K Point Kit (TGR BioSciences, Adelaide, Australia) and an IgG Detection Kit (PerkinElmer, Waltham, Mass.). 5 μl of 1× Lysis Buffer was added to each well using the PerkinElmer® FlexDrop PLUS. The plates were then incubated at room temperature on a shaker for ten minutes. The AlphaScreen® reaction was prepared under low light conditions (subdued or green light) including p-Akt (Ser 473) Reaction Buffer, Dilution Buffer, Activation Buffer, Acceptor Beads and Donor Beads at a ratio of 40:20:10:1:1 respectively. The AlphaScreen® reaction was added to the cell lysate at 6 μl per well using the PerkinElmer® FlexDrop PLUS. The plates were placed in a humid environment to reduce edge effects and incubated overnight at room temperature with restricted air flow in the dark.
On the final day of the experiment, the plates were read on the PerkinElmer® EnVision™ 2103 Multilable Reader using the standard AlphaScreen® readout. The POC is calculated and the data is analyzed to report the IC50 IP for pAkt at Serine 473.
Background: In Alpha technology, singlet oxygen from a donor bead excites a nearby acceptor bead.

T1 sequence (P42336 whole entry, species assumed): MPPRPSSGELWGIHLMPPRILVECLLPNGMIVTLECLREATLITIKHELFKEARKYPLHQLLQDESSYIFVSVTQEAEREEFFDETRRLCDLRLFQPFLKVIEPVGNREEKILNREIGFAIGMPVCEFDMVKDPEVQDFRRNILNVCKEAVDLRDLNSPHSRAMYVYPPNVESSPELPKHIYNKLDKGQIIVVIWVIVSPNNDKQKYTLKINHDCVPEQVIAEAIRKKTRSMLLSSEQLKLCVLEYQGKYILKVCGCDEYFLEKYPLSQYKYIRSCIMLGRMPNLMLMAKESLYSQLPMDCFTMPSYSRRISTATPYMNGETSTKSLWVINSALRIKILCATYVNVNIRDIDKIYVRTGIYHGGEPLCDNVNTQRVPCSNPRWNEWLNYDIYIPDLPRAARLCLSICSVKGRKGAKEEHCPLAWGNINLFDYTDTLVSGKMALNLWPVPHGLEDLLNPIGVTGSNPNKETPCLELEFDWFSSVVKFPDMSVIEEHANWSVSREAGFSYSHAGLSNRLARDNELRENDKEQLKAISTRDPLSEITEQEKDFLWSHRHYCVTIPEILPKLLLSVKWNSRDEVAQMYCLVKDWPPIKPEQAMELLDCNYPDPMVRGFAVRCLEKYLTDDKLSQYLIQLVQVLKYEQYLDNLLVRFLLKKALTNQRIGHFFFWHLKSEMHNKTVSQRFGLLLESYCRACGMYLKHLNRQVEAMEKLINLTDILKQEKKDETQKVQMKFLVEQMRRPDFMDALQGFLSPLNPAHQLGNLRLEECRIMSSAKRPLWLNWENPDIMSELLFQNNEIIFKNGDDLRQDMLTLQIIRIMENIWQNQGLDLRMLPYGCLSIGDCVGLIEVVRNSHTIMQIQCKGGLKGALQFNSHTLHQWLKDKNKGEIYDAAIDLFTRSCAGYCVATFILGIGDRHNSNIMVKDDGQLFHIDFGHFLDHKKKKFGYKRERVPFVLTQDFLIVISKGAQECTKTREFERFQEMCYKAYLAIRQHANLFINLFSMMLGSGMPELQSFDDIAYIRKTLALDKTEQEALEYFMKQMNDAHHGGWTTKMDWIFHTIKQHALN
T1 sequence (P27986 whole entry partner, species assumed): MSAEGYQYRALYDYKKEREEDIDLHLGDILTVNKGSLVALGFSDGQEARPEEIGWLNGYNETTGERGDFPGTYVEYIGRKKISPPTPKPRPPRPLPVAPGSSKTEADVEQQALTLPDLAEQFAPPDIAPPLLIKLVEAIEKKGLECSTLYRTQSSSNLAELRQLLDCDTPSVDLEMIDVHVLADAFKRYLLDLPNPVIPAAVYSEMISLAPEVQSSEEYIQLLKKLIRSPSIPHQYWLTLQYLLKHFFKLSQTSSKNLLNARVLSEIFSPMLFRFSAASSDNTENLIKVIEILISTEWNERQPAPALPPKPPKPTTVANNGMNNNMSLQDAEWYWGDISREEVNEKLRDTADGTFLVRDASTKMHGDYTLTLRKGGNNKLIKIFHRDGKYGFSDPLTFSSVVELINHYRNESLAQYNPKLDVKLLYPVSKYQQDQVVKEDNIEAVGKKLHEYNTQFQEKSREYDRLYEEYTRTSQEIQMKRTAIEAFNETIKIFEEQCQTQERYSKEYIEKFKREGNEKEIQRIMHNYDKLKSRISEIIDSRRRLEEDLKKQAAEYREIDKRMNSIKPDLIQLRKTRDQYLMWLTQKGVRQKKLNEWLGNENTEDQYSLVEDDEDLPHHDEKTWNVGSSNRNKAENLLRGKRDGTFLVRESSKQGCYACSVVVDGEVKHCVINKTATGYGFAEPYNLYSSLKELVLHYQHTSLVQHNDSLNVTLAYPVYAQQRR

Usually IC50 stands for the concentration that inhibits the measured activity by half. With `CNC(C)c1ccc(S(=O)(=O)Nc2cc(-c3ccc4nc(NC(C)=O)cn4n3)cnc2Cl)cc1` (racemic) [Example 37, N-(6-(6-chloro-5-(4-(1-(methylamino)ethyl)phenylsulfonamido)pyridin-3-yl)imidazo[1,2-b]pyridazin-2-yl)acetamide], the results for the IC50 (on PI3Kα; in assay [1]) were 7 nM and 244 nM, respectively.
Turning to `CC(=O)Nc1cn2nc(-c3cccc(NS(=O)(=O)c4ccc(C)cc4)c3)ccc2n1` [Example 1, N-(6-(3-(4-Methylphenylsulfonamido)phenyl)imidazo[1,2-b]pyridazin-2-yl)acetamide], the results for the IC50 (on PI3Kα; in assay [1]) were 55 nM and 214 nM, respectively.
On the same counts, the results for `CC(=O)Nc1cn2nc(-c3cccc(N(C)S(=O)(=O)c4ccc(C)cc4)c3)ccc2n1` [Example 2, N-(6-(3-(N,4-Dimethylphenylsulfonamido)phenyl)imidazo[1,2-b]pyridazin-2-yl)acetamide] are 98 nM and 462 nM.
The matching figures for `CC(=O)Nc1cn2nc(-c3ccnc(Sc4ccccc4F)c3)ccc2n1` [Example 4, N-(6-(2-(2-Fluorophenylthio)pyridin-4-yl)imidazo[1,2-b]pyridazin-2-yl)acetamide]: 77 nM and 1140 nM.
Turning to `CC(=O)Nc1cn2nc(-c3cccc(NS(=O)(=O)c4cccc5ccccc45)c3)ccc2n1` [Example 7, N-(6-(3-(Naphthalene-1-sulfonamido)phenyl)imidazo[1,2-b]pyridazin-2-yl)acetamide], the IC50 at PI3Kα came to 62 nM; in assay [1] it was 456 nM.
The matching figures for `CSc1cncc(-c2ccc3nc(NC(C)=O)cn3n2)c1` [Example 8, N-(6-(5-(Methylthio)pyridin-3-yl)imidazo[1,2-b]pyridazin-2-yl)acetamide]: 60 nM and 1200 nM.
In the case of `CC(=O)Nc1cn2nc(-c3cncc(S(C)(=O)=O)c3)ccc2n1` [Example 10, N-(6-(5-(Methylsulfonyl)pyridin-3-yl)imidazo[1,2-b]pyridazin-2-yl)acetamide], the IC50 on PI3Kα was 104 nM; in assay [1] it was 869 nM.
With `CC(=O)Nc1cn2nc(-c3cncc(NS(=O)(=O)c4ccc(F)cc4)c3)ccc2n1` [Example 11, N-(6-(5-(4-Fluorophenylsulfonamido)pyridin-3-yl)imidazo[1,2-b]pyridazin-2-yl)acetamide], the figures for the IC50 (at PI3Kα; in assay [1]) were 6 nM and 213 nM, respectively.
Consider `CC(=O)Nc1nc2ccc(-c3cnc(Cl)c(NS(C)(=O)=O)c3)nn2c1-c1ccncc1` [Example 26, N-(6-(6-Chloro-5-(methylsulfonamido)pyridin-3-yl)-3-(pyridin-4-yl)imidazo[1,2-b]pyridazin-2-yl)acetamide], for which the IC50 in assay [2] was 6530 nM; at PI3Kα, 9 nM.
On the same counts, the results for `CS(=O)(=O)Nc1cc(-c2ccc3nc(N)c(-c4ccncc4)n3n2)cnc1Cl` [Example 27, N-(5-(2-Amino-3-(pyridin-4-yl)imidazo[1,2-b]pyridazin-6-yl)-2-chloropyridin-3-yl)methanesulfonamide] are 3500 nM and 154 nM.
On the same counts, the results for `CC(=O)Nc1cn2nc(-c3cnc(Cl)c(NS(=O)(=O)c4ccc(C)cc4)c3)ccc2n1` [Example 42, N-(6-(6-Chloro-5-(4-methylphenylsulfonamido)pyridin-3-yl)imidazo[1,2-b]pyriadazin-2-yl)acetamide] are 5 nM and 6 nM.
Take `COc1ccc(-c2ccc3nc(NC(C)=O)cn3n2)cc1OC` [Example 43, N-(6-(3,4-Dimethoxyphenyl)imidazo[1,2-b]pyridazin-2-yl)acetamide]: the IC50 was 242 nM in assay [2] and 44 nM on PI3Kα.
On the same counts, the results for `CC(=O)Nc1cn2nc(-c3cc(NS(=O)(=O)c4ccc(F)cc4)c(Cl)nn3)ccc2n1` [Example 52, N-(6-(6-Chloro-5-(4-fluorophenylsulfonamido)pyridazin-3-yl)imidazo[1,2-b]pyridazin-2-yl)acetamide] are 523 nM and 691 nM.
